Values quoted from earlier work as cited in patent publication US20210022978A1, “BUMETANIDE DERIVATIVES FOR THE THERAPY OF HYPERHIDROSIS” (ZILENTIN AG, priority 2018, published 2021).

How the values were obtained:
NKCC in sweat glands = molecular target: T1, NKCC in sweat glands (Homo sapiens, UniProt P55011)
T1 construct: host or cells: sweat glands (in vivo)
T1 sequence (P55011 1-1212): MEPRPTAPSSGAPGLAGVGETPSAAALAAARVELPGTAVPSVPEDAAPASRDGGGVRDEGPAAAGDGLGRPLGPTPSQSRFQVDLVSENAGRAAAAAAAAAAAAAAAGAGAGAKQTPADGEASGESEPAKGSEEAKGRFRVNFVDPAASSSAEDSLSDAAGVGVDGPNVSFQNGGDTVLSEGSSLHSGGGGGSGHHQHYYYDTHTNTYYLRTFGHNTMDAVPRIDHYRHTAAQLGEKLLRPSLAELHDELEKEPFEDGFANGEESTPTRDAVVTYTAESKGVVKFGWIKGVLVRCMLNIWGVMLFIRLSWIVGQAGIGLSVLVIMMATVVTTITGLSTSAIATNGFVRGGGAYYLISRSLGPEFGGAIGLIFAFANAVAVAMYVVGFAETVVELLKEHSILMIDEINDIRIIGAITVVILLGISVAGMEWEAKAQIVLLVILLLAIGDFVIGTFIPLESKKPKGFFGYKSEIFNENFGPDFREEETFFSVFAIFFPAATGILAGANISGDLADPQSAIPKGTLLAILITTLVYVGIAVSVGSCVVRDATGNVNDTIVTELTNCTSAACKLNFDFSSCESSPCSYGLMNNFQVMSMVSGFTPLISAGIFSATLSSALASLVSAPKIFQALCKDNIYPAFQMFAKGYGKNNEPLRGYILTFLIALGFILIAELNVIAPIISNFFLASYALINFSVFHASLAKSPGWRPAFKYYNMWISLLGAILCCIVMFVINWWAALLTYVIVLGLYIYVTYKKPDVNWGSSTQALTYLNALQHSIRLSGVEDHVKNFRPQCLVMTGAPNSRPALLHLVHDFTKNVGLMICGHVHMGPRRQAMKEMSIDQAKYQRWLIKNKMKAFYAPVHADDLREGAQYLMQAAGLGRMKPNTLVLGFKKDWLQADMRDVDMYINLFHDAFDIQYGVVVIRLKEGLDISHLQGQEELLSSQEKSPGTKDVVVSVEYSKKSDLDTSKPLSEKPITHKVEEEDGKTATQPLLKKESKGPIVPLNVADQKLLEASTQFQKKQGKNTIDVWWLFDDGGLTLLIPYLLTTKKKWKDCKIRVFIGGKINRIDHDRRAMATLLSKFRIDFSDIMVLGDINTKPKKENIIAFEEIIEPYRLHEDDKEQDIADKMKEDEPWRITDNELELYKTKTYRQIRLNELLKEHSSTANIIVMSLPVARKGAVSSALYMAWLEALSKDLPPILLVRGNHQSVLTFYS

conditioned anxiety = settings: rats, compared with the vehicle alone

| SMILES | effectiveness in treating hyperhidrosis (NKCC in sweat glands) | percentage of test period freezing (conditioned anxiety) | inhibition of rAceMIF tautomerase activity (rAceMIF) |
| --- | --- | --- | --- |
| CCCCNc1cc(C(=O)O)cc(S(N)(=O)=O)c1Oc1ccccc1 [bumetanide, 3-(butylamino)-4-phenoxy-5-sulfamoylbenzoic acid] | partly effective | significantly smaller percentage of test period freezing |  |
| NS(=O)(=O)c1cc(C(=O)O)c(NCc2ccco2)cc1Cl [furosemide] |  |  | submicromolar |
